Structures can show the parent of a compound that is named as a salt.

For orientation: IC50 means the concentration that gives 50% inhibition.

Series [1] in a line: Equilibrium between diacid (10) and anhydride (9) in solution, pH dependence (UV). Conditions: for Predominant form in anhydride/diacid equilibrium: in solution, pH dependent. Type of series: physicochemical. From the text:
The equilibrium between diacid (10) and anhydride (9) in a solution is pH dependent. […] However, when basified with dil NaOH, this maximum shifted to ^λ max 243 nm. This shift is clear evidence of opening of the anhydride into the diacid.
(§1) The latter band under went a hypsochromic shift to […] after addition of dil NaOH.

The target in series [2] is T1, Farnesyl-protein transferase (FTase) (Bos taurus, UniProt P29702+P49355).
T1 construct: Farnesyl-protein transferase (FTase) from bovine brain; from tissue; host or cells: bovine brain, partially purified (DEAE-Sephacel, N-octyl agarose, mono Q)
Briefly: Inhibition of Ras farnesylation in vitro (FTase inhibition, Ras-CVLS and [3H]FPP). Type of series: biochemical, bovine. Conditions: for IC50: Ras-CVLS 3.5 μM, 0.25 μM [3H]FPP, partially purified FTase from bovine brain, assay buffer pH 7.5. On the procedure: The intrinsic farnesyl-protein transferase (FTase) activity of representative compounds of this invention was measured by the assay as described below:
Farnesyl-protein transferase (FTase) from bovine brain was chromatographed on DEAE-Sephacel (Pharmacia, 0-0.8M NaCl gradient elution), N-octyl agarose (Sigma, 0-0.6M NaCl gradient elution), and a mono Q HPLC column (Pharmacia, 0-0.3M NaCl gradient). Ras-CVLS (Cys-Val-Leu-Ser) at 3.5 μM, 0.25 μM [^3 H]FPP, and the indicated compounds were incubated with this partially purified enzyme preparation. The FTase inhibition data presented below is a measurement of the ability of the test compound to inhibit Ras farnesylation in vitro.

A short description of series [3]: Reaction of anhydride (9) with CH3OH. It counts as physicochemical. Conditions: methanolic solution.
Description: as §1

For the compound `CCCCCCCCCCCCCCC1=C(C)C(=O)OC1=O` [Compound (9)], in series [1] (CH3OH-HEPES buffer (7:5), pH 7.5, UV maximum 243 nm), the “Form present under assay conditions” value was “exits in the open dicarboxylate form of compound (10)”. In series [1], the “Predominant form in anhydride/diacid equilibrium” value is “predominates when the solution is acidic”. This compound also showed an IC50 in series [2] of 46 nM. Further, the “Reactivity with CH3OH” value in series [3] was “reacts slowly with CH3 OH”.
Regarding `CCCCCCCCCCCCCC/C(C(=O)O)=C(\C)C(=O)O` [Compound (10)], the “Predominant form in anhydride/diacid equilibrium” value in series [1] is on record as “predominates when the solution is basic”. Also, half-maximal inhibition in series [2] (IC50) was put at 46 nM.
As to `CCCCCCCCCCCCCC/C(C(=O)O)=C(\C)C(=O)O` [diisopropylethylamine salt], the “RAS farnesyl transferase inhibitory activity of trapped diacid salt” value in series [2] (open diacid form (10) trapped as diisopropylethylamine salt) is on record as “without any loss of RAS farnesyl transferase inhibitory activity”.

(Values after US5420157A, “Inhibitors of farnesyl protein transferase or prodrugs thereof” (Merck & Co., Inc., priority 1991, dated 1995).)
